Data set [1] is described as follows: cells. Format: functional, cell-based.
Data set [2] can be described thus: cells. It is filed as functional, cell-based. The source holds these as a separate data set.
Data set [3] addresses T1, Calpain-2 catalytic subunit (Sus scrofa, UniProt P43367).
T1 sequence (P43367 whole entry): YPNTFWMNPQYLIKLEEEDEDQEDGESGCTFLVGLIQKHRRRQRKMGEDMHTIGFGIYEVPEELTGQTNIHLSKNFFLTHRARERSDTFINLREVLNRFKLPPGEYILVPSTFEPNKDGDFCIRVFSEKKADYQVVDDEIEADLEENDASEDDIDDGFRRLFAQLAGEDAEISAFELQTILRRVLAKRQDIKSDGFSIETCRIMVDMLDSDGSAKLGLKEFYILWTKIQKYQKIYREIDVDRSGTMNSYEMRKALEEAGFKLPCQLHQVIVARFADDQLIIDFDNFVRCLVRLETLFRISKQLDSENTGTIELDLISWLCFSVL
Put plainly: pig calpain II inhibitor potency, dose response, biochemical, fluorogenic peptide substrate (AID 1420). It is filed as functional.

For data set [4], the target named is Cytochrome P450 2C19 (Homo sapiens, UniProt P33261). Nature of the data set: Cytochrome panel assay with activity outcomes. Panel member name: p450-cyp2c19 Compounds with AC50 equal or less than 10 uM are considered active. Format: functional.
Sequence of Cytochrome P450 2C19 (P33261 whole entry): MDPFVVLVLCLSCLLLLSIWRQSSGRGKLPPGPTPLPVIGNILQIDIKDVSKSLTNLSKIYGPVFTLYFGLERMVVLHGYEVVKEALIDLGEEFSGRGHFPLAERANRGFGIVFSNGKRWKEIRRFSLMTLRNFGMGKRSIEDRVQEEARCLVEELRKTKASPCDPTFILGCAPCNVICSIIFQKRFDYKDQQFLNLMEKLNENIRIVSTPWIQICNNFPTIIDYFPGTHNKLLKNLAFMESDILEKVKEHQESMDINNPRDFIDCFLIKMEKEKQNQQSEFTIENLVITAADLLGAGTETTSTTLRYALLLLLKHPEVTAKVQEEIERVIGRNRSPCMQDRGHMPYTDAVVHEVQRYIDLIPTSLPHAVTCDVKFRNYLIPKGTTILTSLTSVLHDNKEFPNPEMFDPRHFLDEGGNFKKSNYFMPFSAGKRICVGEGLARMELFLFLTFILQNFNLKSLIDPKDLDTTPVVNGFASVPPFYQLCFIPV
The target of data set [5] is T2, Cytochrome P450 3A4 (Homo sapiens, UniProt P08684).
T2 sequence (P08684 whole entry): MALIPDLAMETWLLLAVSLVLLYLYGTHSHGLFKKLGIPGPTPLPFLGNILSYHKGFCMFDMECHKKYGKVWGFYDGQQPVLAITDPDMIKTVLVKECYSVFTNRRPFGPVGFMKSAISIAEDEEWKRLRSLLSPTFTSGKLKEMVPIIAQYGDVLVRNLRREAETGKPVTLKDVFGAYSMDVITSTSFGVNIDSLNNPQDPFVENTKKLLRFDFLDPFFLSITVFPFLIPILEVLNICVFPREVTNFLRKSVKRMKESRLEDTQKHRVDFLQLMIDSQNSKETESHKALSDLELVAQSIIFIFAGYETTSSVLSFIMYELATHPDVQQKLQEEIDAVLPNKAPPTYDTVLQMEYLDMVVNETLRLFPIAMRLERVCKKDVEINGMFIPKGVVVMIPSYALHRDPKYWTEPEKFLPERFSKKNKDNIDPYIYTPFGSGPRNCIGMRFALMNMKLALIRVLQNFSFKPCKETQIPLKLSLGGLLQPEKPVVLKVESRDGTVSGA
Data set [6] has as its target Induced myeloid leukemia cell differentiation protein Mcl-1 (Homo sapiens, UniProt Q07820). It is filed as functional.
In data set [7] the target is T2, Cytochrome P450 3A4. As to conditions: Potency.
Data set [8] concerns Vero. Nature of the data set: cells. Format: functional, cell-based. The conditions noted are these: Chlorocebus sabaeus.
For data set [9], the system named is Vero. Put plainly: cells. As to conditions: Chlorocebus sabaeus, Vero. Format: functional, Chlorocebus sabaeus.
Data set [10] deals with T3, Short transient receptor potential channel 4 (Mus musculus, UniProt Q9QUQ5).
T3 sequence (Q9QUQ5 whole entry): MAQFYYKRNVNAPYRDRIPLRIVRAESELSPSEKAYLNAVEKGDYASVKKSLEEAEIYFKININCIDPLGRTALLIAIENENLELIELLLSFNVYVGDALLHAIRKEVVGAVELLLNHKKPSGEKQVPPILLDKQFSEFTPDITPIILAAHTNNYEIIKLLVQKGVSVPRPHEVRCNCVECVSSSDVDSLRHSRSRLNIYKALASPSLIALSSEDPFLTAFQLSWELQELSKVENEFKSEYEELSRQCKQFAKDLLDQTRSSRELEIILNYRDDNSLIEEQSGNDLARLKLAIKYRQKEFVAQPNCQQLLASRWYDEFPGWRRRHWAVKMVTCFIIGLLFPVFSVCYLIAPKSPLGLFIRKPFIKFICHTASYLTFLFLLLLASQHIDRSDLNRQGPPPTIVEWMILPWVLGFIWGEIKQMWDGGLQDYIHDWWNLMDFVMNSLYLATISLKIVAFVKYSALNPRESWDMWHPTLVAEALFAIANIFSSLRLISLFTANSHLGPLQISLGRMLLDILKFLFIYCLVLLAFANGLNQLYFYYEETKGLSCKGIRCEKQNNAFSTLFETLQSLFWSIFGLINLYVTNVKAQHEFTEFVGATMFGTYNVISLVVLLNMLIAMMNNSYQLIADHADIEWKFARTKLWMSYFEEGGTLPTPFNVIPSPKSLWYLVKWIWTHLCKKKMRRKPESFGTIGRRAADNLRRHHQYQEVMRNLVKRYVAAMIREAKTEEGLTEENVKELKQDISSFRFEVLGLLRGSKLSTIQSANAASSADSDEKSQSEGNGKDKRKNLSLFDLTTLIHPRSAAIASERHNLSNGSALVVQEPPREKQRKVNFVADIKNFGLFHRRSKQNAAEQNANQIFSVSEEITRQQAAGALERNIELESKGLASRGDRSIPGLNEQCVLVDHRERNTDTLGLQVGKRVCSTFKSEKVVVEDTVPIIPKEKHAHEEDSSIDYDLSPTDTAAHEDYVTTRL
Nature of the data set: mouse TRPC4 channel inhibitors, dose response, cell-based, HEK293 TRPC4/mu-opioid, Fluo-4 calcium (AID 434942).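 Note: potency of inhibitors blocking the TRPC4 calcium response.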 Format: functional.

Data set [11] concerns the target Cytochrome P450 2D6 (Homo sapiens, UniProt P10635).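 Note: CYP2D6 member of a cytochrome P450 panel assay.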
Data set [12] addresses T2, Cytochrome P450 3A4. The source holds these as a separate data set.
In data set [13] the target is T4, Voltage-gated N-type calcium channel alpha-1B subunit/Amyloid beta A4 precursor protein-binding family A member 1 (Homo sapiens, UniProt Q00975+Q02410). It is filed as protein assay.
In data set [14] the target is Large T antigen (Simian virus 40, UniProt P03070). Format: functional, Betapolyomavirus macacae.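 Note: Confirmatory-stage PubChem screen for compounds that inhibit SV40 T antigen.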
Sequence of Large T antigen (P03070 whole entry): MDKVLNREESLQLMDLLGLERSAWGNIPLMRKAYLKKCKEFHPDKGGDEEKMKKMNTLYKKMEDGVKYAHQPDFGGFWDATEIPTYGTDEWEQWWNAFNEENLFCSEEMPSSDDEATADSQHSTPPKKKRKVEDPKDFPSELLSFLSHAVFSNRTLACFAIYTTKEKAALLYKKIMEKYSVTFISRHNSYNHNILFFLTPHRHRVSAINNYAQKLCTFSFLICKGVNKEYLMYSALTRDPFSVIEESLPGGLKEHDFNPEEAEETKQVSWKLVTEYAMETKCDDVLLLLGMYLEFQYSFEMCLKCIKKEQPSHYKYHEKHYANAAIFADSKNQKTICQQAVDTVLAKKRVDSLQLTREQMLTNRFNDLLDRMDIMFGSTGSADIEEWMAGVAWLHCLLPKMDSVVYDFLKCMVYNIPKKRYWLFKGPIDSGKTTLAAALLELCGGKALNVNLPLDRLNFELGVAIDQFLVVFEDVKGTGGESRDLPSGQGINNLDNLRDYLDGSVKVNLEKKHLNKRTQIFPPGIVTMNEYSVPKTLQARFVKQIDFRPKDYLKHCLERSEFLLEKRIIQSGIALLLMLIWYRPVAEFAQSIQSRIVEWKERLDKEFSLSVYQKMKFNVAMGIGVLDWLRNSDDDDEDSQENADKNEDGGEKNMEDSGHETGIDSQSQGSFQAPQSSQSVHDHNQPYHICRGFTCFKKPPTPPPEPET
The target in data set [15] is T4, Voltage-gated N-type calcium channel alpha-1B subunit/Amyloid beta A4 precursor protein-binding family A member 1. It is filed as protein assay. This is another data set of the same source.
Data set [16] addresses T5, Caspase-6 (Homo sapiens, UniProt P55212).
T5 sequence (P55212 whole entry): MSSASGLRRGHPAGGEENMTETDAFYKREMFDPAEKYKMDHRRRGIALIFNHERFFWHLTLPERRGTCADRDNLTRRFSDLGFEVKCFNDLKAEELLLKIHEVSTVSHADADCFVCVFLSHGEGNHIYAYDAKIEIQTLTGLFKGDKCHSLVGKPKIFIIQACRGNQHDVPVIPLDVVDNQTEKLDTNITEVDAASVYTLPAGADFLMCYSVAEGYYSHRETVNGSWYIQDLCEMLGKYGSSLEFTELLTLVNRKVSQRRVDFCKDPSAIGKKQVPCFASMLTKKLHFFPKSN
Nature of the data set: human caspase-6 inhibitors, dose response, biochemical, VEID-R110 fluorescence, cherry-pick (AID 720632).

Data set [17] deals with Streptococcus sp. 'group A'. Put plainly: growth inhibition of control SK(-) GAS strain, dose response, counter-screen for streptokinase expression inhibitor project, luminescence, kanamycin, BacTiterGlo, confirmation (AID 1900). Format: functional, organism-based. (Counterscreens check selectivity or assay interference.)
Data set [18] concerns the target T6, Streptokinase A (Streptococcus pyogenes serotype M1, UniProt P10520).
T6 sequence (P10520 whole entry): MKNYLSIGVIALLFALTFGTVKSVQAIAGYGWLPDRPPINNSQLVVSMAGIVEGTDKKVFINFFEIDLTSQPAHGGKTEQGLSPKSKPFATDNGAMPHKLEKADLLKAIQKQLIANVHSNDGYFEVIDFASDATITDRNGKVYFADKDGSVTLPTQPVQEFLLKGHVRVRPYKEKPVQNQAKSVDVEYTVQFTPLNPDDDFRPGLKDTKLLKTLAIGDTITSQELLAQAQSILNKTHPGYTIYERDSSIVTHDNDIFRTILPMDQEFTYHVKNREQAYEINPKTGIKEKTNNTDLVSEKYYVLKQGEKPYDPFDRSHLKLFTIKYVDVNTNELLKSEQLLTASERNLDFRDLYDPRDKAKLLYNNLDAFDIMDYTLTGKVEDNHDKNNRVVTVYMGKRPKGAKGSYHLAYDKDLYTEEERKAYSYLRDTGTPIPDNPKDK
Put plainly: S. pyogenes streptokinase expression inhibitors, potency, dose response, plasminogen activation absorbance, OD405 (AID 1914).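 Note: secreted streptokinase activity via plasminogen activation per viability signal from cell pellet.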 It is filed as functional, Streptococcus pyogenes M1 GAS.

The test system of data set [19] is Streptococcus. Put plainly: Group A Streptococcus viability loss, dose response, counter-screen for streptokinase expression inhibitor project, luminescence, BacTiterGlo (AID 1915).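 Note: potency for reduction of bacterial viability or growth.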 Format: functional, organism-based.
A short description of data set [20]: Luminescence Cell-Based Dose Retest to Confirm Inhibitors of Cancer Stem Cells. [Related pubchem assays (depositor defined):AID2717, AID2721]. Format: functional. As to conditions: Homo sapiens.
In data set [21] the target is Cytochrome P450 2C9 (Homo sapiens, UniProt P11712).
Sequence of Cytochrome P450 2C9 (P11712 whole entry): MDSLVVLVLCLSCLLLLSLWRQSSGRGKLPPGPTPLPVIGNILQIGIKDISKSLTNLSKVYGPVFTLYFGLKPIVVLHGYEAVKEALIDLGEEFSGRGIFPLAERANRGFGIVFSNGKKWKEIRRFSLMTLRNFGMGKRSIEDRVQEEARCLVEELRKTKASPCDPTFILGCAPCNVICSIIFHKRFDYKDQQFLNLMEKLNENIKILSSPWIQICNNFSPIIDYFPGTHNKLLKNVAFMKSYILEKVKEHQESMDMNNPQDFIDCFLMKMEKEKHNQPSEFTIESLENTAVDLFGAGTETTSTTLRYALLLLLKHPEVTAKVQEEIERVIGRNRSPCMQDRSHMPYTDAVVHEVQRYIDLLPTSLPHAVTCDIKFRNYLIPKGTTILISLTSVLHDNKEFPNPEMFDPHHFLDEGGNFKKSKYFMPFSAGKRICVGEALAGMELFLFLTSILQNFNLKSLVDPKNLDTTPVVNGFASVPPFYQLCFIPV
Data set [22] in a line: HEp-2 cell cytotoxicity, dose response, cytotoxicity control for RSV inhibitor project, HTS (AID 2410). It is filed as functional. The conditions noted are these: human respiratory syncytial virus.

Molecules are shown by their SMILES. Active and inactive are the calls of the source.

As usually defined, the EC50 is the concentration that produces a half-maximal response. In general, IC50 refers to the concentration needed to halve the response being measured. One may read the AC50 as the midpoint of the concentration-response curve, whichever way the signal moves. In general, CC50 refers to the concentration at which the toxic effect on the cells reaches its halfway point.

Sequence of Cytochrome P450 2D6 (P10635 whole entry): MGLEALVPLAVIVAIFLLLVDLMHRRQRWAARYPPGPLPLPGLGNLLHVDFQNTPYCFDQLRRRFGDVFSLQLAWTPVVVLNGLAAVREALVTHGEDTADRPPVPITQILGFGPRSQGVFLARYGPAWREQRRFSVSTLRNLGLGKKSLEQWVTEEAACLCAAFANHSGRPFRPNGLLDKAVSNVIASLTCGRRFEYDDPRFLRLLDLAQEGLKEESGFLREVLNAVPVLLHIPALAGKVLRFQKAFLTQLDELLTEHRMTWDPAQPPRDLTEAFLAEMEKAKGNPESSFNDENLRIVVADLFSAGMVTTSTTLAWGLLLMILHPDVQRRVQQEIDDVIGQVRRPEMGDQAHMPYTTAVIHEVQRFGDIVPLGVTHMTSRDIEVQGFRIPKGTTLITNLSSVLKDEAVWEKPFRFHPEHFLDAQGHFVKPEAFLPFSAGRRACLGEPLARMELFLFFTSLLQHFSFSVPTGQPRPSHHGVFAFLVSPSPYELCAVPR
Sequence of Induced myeloid leukemia cell differentiation protein Mcl-1 (Q07820 whole entry): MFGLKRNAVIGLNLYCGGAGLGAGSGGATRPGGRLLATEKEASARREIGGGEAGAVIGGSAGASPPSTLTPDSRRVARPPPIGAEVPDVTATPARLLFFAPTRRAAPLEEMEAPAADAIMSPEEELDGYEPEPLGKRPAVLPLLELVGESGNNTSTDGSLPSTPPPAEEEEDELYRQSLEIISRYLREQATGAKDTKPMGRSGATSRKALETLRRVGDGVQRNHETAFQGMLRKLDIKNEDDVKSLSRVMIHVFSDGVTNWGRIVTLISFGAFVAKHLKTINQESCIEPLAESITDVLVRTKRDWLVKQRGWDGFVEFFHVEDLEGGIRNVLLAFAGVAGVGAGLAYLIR

For `O=C(c1ccc(-c2nnc(-c3ccccc3)o2)cc1)N1CCCCCC1`, the EC50 was > 350 µM (not active) in [1] and 5.78 µM (active) in data set [2]. For the same molecule, in data set [3], the IC50 was 11 µM (not active).
As for `O=C(O)/C=C/C(=O)Nc1ccc(F)cc1F`, the results for the concentration at half-maximal activity (AC50) in [4] (read-out: AC50) and in data set [5] were 39.8 µM (inconclusive) and “inconclusive”, respectively.
As to `O=C(CSc1nnnn1-c1ccc2c(c1)OCCO2)OC1CCCCC1`, the IC50 in [3] was 10.3 µM (not active).
For the molecule `CC(C)CCC(CCN1CCCC1)c1ccc2c(c1)OCO2` (centres undefined), in [6], the IC50 is 6.38 µM (not active).
As for `Cn1c(=O)c(-c2ccc(Cl)cc2)nc2cnc(Oc3ccccc3)nc21`, the AC50 result in data set [5] is “inconclusive”.
`CC(=O)N1CC=CC1(C)C(=O)O` (centres undefined): the AC50 in data set [7] is 20 µM (inconclusive).
Take `O=C(Cc1coc2ccc3ccccc3c12)Nc1nnc(C2CC2)s1`: the IC50 in data set [8] is 21.7 µM (active). Moreover, the CC50 in data set [9] is > 25 µM (active).
As for `Cc1cc(N2CCCCCC2)nc2ccccc12`, the EC50 in [10] is 1.33 µM (active).
In the case of `Cc1cccnc1NC(=O)C12CCC(C)(C(=O)O1)C2(C)C` (centres undefined), the AC50 result in data set [4] and in data set [5] was “inconclusive” each time.
For `Cc1ccc2c(c1)nnn2C1CCN(S(=O)(=O)c2ccc(C(=O)N3CC(C)CC(C)C3)cc2)CC1` (centres undefined), in [3], the IC50 is 3.74 µM (not active).
On to `CCCCc1nc(SCCOC)c2c(=O)n(C)c(=O)n(C)c2n1`, for which the EC50 in [10] is 1.5 µM (active).
With `N#Cc1c(N2CCCCC2)nc(N)c2c(N)nc3c(c12)CC(c1ccccc1)O3` (centres undefined), in [10], the EC50 is 2.99 µM (active). Also, the AC50 in data set [11] is 25.1 µM (inconclusive); in data set [12], 1 µM (inconclusive).
Consider `COc1cccc(N2C(=O)NC(=O)/C(=C\c3ccc([N+](=O)[O-])s3)C2=O)c1`, for which the IC50 in data set [13] is 13.5 µM (active); in data set [14] it was 32.4 µM (active); in data set [15] it was 6.66 µM (active). Further, the AC50 in [16] was 43 µM (active).
Consider `O=C(CCCCn1c(=O)c2ccccc2n(CC(=O)NC2CCCC2)c1=O)NCc1ccco1`, for which the IC50 in data set [3] is listed as 28.8 µM (not active).
On to `CCC1=C2CC[C@H]3C(=O)NC(=O)[C@H]3[C@H]2[C@@]2(Cc3ccccc3)/C(=N/CC(=O)OC)OC(=O)N2C1=O`, for which the half-maximal activity concentration (AC50) in data set [7] was 15.8 µM (inconclusive).
Consider `C=CCn1cnc2scc(-c3ccc(CC)cc3)c2c1=O`, for which the EC50 in data set [10] was 5.96 µM (active).
As for `Oc1c(Cl)cc(Cl)cc1/C=C/c1ccc2cccc(O)c2n1`, the IC50 in [6] is given as 6.97 µM (not active).
For the molecule `Cc1ccc(NC2=NCC(Cc3ccc(Br)cc3)S2)cc1` (centres undefined), the EC50 in data set [17] was 6.42 µM (active); in data set [18] it was > 150 µM (not active); in [19], 10.4 µM (active). Further, the IC50 in data set [3] is listed as 5.89 µM (not active). Also, the AC50 in data set [20] is 6.43 µM (active).
Consider `CCOC(=O)c1sc(=S)n(-c2cccc(C(F)(F)F)c2)c1SC`, for which the figures for the AC50 in data set [21] and in [5] were 1.58 µM (inconclusive) and “inconclusive”, respectively.
For the molecule `Cn1cc(CNCC2CCCO2)c(-c2ccc(Oc3ccccc3)cc2)n1` (centres undefined), in [10], the EC50 was 3.35 µM (active).
For the molecule `O=C(c1csnn1)N1CCC2(CC1)CN(C(c1ccccc1)c1ccccc1)C2`, the AC50 in [4] (read-out: AC50) was 0.00631 µM (inconclusive); in data set [11], 12.6 µM (inconclusive); in data set [21] it was 15.8 µM (inconclusive); in data set [5] it was “inconclusive”.
For the molecule `O=C(CC1C(=O)NCCN1C(=O)Nc1ccc(C(F)(F)F)cc1)Nc1ccc(F)cc1` (centres undefined), the CC50 in data set [9] was > 25 µM (active).
As to `CCOC(=O)c1c(N)sc(C(O)(C(F)(F)F)C(F)(F)F)c1-c1ccc(Cl)cc1`, the CC50 in [22] was 11.4 µM (active). Further, the EC50 is 1.96 µM (active) in data set [17], 6.86 µM (active) in [18] and 10.1 µM (active) in [19]. The IC50 in data set [3] was 13.3 µM (not active).
On to `COc1ccc(C(=O)N2CCC3(CC2)CCN(C(c2ccccc2)c2ccccc2)CC3)cc1`, for which the results for the AC50 in data set [11], in data set [21] and in [5] were 12.6 µM (inconclusive), 39.8 µM (inconclusive) and “inconclusive”, respectively.
Regarding `COC1CC(C)C(OC)c2cc(O)cc(c2O)NC(=O)C(C)=CC=CC(C)C(OC(N)=O)C(C)=CC(C)C1OC` (centres undefined), in [9], the CC50 was 12.6 µM (active).
With `Oc1c(Br)cc(/C=N/c2ccc3[nH]c(-c4ccccc4)nc3c2)c(O)c1Br`, in [6], the IC50 is 1.49 µM (active).
On to `Cc1cccn2c(=O)c(/C=N/O)c(Nc3ccccc3F)nc12`, for which the IC50 in [13] is 11.4 µM (active); in [15], > 50 µM (inactive).
In the case of `CCCCNC(=O)C(c1ccc(OCC(=O)OC)c(C(=O)OC)c1)N(CCOC)C(=O)CCCCCN1C(=O)NC(c2ccc(-c3ccccc3)cc2)C(C(=O)OCc2ccccc2)=C1C` (centres undefined), the concentration at half-maximal activity (AC50) in data set [7] was 3.16 µM (inconclusive).
As to `COc1c(CC(=O)c2cc3c(cc2O)OC(C)(C)C(O)C3)ccc2c1C=CC(C)(C)O2` (centres undefined) [DIHYDROMUNDULETONE], in data set [7], the AC50 was 25.1 µM (inconclusive).

The values above are taken from ChEMBL document CHEMBL1201862, “PubChem BioAssay data set” (2004).
